Data: patent US10881662B2, “Intracellular ATP enhancer” (StaGen Co., Ltd., priority 2016, dated 2021)

What was measured:
blood ATP = assay: Test Example 1: blood purine concentrations by HPLC, ATP; format: in vivo, human; settings: Week 0 to Week 2
Method: (§1) Various purines in peripheral blood were measured according to the Reference. Briefly, peripheral blood was collected with EDTA, 500 μL mixed with 500 μL ice cold 8% PCA, immediately vortexed for five seconds, and centrifuged at 12,000×g for 10 minutes at 4° C., and the supernatant was stored at −80° C. The processed sample was then dissolved, with 40 μL of 2M K2CO3 in 6 M KOH added to 650 μL of the solution to simultaneously precipitate the PCA and neutralize the solution. After this solution was centrifuged at 12,000×g for 10 minutes at 4° C., 160 μL of a mobile phase was added to 40 μL of the supernatant and applied to HPLC. The conditions of HPLC were also set according to the Reference. The amounts of purines are expressed in molar quantity contained in 1 L of whole blood.
(§2) Coolen E J, Arts I C, Swennen E L, Bast A, Stuart M A, Dagnelie P C. Simultaneous determination of adenosine triphosphate and its metabolites in human whole blood by RP-HPLC and UV-detection. J Chromatogr B Analyt Technol Biomed Life Sci. 2008 Mar. 15; 864(1-2): 43-51.
(§3) The following administration test was conducted for 16 Japanese healthy adult males, one subject in Phase I and 15 subjects in Phase II divided into Group A to Group E with 3 subjects each.
(§4) After Phase I, the following contents were administered to three subjects in each group:
(§5) Group A: febuxostat 20 mg twice a day for 14 days;
(§6) Group B: inosine 500 mg of twice a day for 14 days;
(§7) Group C: febuxostat 20 mg and inosine 500 mg twice a day for 14 days;
(§8) Group D: febuxostat 20 mg and inosine 1000 mg twice a day for 14 days; and
(§9) Group E: febuxostat 30 mg twice a day for 14 days.

serum uric acid = assay: Test Example 1: serum uric acid value (uricase-peroxidase method); format: in vivo, human
Method: For a clinical chemistry automatic analyzer, a dry clinical chemistry analysis measuring unit manufactured by ARKRAY, Inc. was used, and the serum uric acid value was measured by using the uricase-peroxidase method.
The following administration test was conducted for 16 Japanese healthy adult males, one subject in Phase I and 15 subjects in Phase II divided into Group A to Group E with 3 subjects each. […]
After Phase I, the following contents were administered to three subjects in each group: […]
as §9

[1] = tested on: model mouse of amyotrophic lateral sclerosis; settings: model mouse of ALS; cited from earlier work
blood Hx (hypoxanthine) = assay: Test Example 1: blood purine concentrations by HPLC, hypoxanthine; format: in vivo, human; settings: Week 0 to Week 2
Method: as §1, §2, §3, §4, §5, §6, §7, §8, §9

urinary Hx = assay: Test Example 1: urinary purine concentrations, hypoxanthine; format: in vivo, human; settings: Week 0 to Week 2, FIG. 5; single administration or combined use, doses not distinguished
Method: as §1
The purine concentrations were measured by the same method as in (4).
as §3, §4, §5, §6, §7
Group D: febuxostat 20 mg and inosine 1000 mg twice a day for 14 days; and […]

urinary uric acid = assay: Test Example 1: urinary uric acid concentration/creatinine concentration; format: in vivo, human; settings: Week 0 to Week 2
Method: Since the urinary uric acid concentration varies with urine volume, a urinary uric acid amount was evaluated by using a urinary uric acid/creatinine value acquired by dividing by urinary creatinine concentration. The measurement method of the uric acid value was the same as that for the serum uric acid value.
as §3, §4, §5, §6, §7, §8, §9

urinary X = assay: Test Example 1: urinary purine concentrations, xanthine; format: in vivo, human; settings: for change in urinary X concentration: Week 0 to Week 2, FIG. 5, single administration or combined use, doses not distinguished
blood X (xanthine) = assay: Test Example 1: blood purine concentrations by HPLC, xanthine; format: in vivo, human; settings: Week 0 to Week 2
Method: as §1, §2, §3, §4, §5, §6, §7, §8, §9

multiple sclerosis = settings: administration of inosine; cited from earlier work
Parkinson's disease = settings: administration of inosine; cited from earlier work
[2] = tested on: erythrocytes with low ATP; settings: erythrocytes left at low temperature for 20 to 30 days, inosine added, left to stand for 1 hour; cited from earlier work
[3] = tested on: patients with chronic stable angina; settings: high-dose administration; cited from earlier work
[4] = Group E: febuxostat 30 mg twice a day for 14 days
[5] = Groups A-C: febuxostat 20 mg and/or inosine 500 mg twice a day for 14 days
[6] = Group E: febuxostat 60 mg/day alone for 14 days

With `Cc1nc(-c2ccc(OCC(C)C)c(C#N)c2)sc1C(=O)O` [febuxostat] as the compound, how does the “change in blood ATP concentration” value (blood ATP; [4]) read?
The value was “No certain tendency was observed”.

And the “change in blood ATP concentration” value (blood ATP; [5])?
Its value is “not changed”.

And the “serum uric acid value, lowest observed” value (serum uric acid; Phase II Group E: febuxostat 30 mg twice a day (60 mg/day) for 14 days)?
Its value is “less than 2 mg/dL”.

What about the “serum uric acid value reduced by” value (serum uric acid; Phase II Group E: febuxostat 30 mg twice a day for 14 days) of the same compound?
Its value is 3.93 mg/dL.

And the “serum uric acid value reduced by” value (serum uric acid; Phase II Groups A and C: febuxostat 20 mg alone or with inosine 500 mg, twice a day for 14 days)?
The value was 2.53 mg/dL.

And the “serum uric acid value, not reduced to less than” value (serum uric acid; Phase II, any of the administration examples of 40 mg/day of febuxostat, 14 days)?
The value was at least 2 mg/dL.

And the “disease progression of amyotrophic lateral sclerosis” value [1]?
The value was “inhibits disease progression”.

And the “change in blood Hx (hypoxanthine) concentration” value (blood Hx (hypoxanthine); [6])?
Its value is “slight rise”.

What about the “change in blood Hx (hypoxanthine) concentration” value (blood Hx (hypoxanthine); [5]) of the same compound?
The value was “unchanged”.

And the “change in urinary Hx concentration” value (urinary Hx)?
The value was “moderate rise”.

What about the “change in urinary uric acid/creatinine” value (urinary uric acid; [4]) of the same compound?
Its value is “reduced”.

What about the “change in urinary uric acid/creatinine” value (urinary uric acid; [5]) of the same compound?
The value was “reduced”.

And the “maximum concentration of urinary X” value (urinary X; [4])?
Its value is 867.7 µM.

And the “maximum concentration of urinary X” value (urinary X; [5])?
Its value is 556.0 µM.

What about the “change in urinary X concentration” value (urinary X) of the same compound?
The value was “significantly increased”.

What about the “change in blood X (xanthine) concentration” value (blood X (xanthine); [6]) of the same compound?
Its value is “rise”.

What about the “change in blood X (xanthine) concentration” value (blood X (xanthine); [5]) of the same compound?
The value was “significantly increased”.

Which results are given for `OC[C@H]1O[C@@H](n2cnc3c(O)ncnc32)[C@H](O)[C@@H]1O` [inosine]?
symptoms of multiple sclerosis (multiple sclerosis): alleviates symptoms; change in blood ATP concentration (blood ATP; [5]): not changed; serum uric acid value increase due to inosine in the presence of febuxostat (serum uric acid; 1 g/day inosine in the presence of 40 mg/day of febuxostat (Group C versus Group A)): 0.3 mg/dL; serum uric acid value increase due to inosine in the presence of febuxostat (serum uric acid; 2 g/day inosine in the presence of 40 mg/day of febuxostat (Group D versus Group A)): 1.06 mg/dL; serum uric acid value raised by, on average (serum uric acid; Phase II Group B: inosine 500 mg twice a day (1 g per day) for 14 days, without febuxostat): 2.57 mg/dL; serum uric acid value, highest observed (up to) (serum uric acid; Phase II Group B: inosine 500 mg twice a day for 14 days): up to 8.1 mg/dL; change in blood Hx (hypoxanthine) concentration (blood Hx (hypoxanthine); [5]): neither Hx nor X changed; change in urinary Hx concentration (urinary Hx): no rise; symptoms of Parkinson's disease (Parkinson's disease): alleviates symptoms; ATP in erythrocytes [2]: ATP increased; change in urinary uric acid/creatinine (urinary uric acid; [5]): significantly increased; maximum concentration of urinary X (urinary X; [5]): 61.9 µM; change in urinary X concentration (urinary X): no rise; change in blood X (xanthine) concentration (blood X (xanthine); [5]): neither Hx nor X changed

For `Oc1ncnc2[nH]ncc12` [allopurinol], which “symptoms of chronic stable angina” value [3] is on record?
The value was “suppressed”.
